Source: patent US9573975B2, “Melanoma antigen peptide and uses thereof” (INSERM (INSTITUT NATIONAL DE LA SANTE ET DE LA RECHERCHE …, priority 2012, dated 2017)

Tests used:
Assay type in all cases: cell-based, human
[1] = test system: MELOE-12-21 specific CD4 T cell clone (9C12-DQβ1*0202); assay: Peptide stimulation of CD4 T cell clone 9C12, intracellular cytokine staining; conditions: cognate peptide 10 μM, 5 hours
Method: (§1) FIG. 5: Minimal peptides recognized by MELOE-1 specific CD4 T cell clones. MELOE-1 specific CD4 T cell clones were incubated with various concentrations of the indicated peptides during 5 hours in presence of Brefeldin A. TNF-α production was assessed by intracellular labeling with an anti-TNF-α specific antibody. The core peptide sequence is indicated in bold on each figure panel, and black circles illustrate the best fitting peptide.
(§2) Lymphocytes were stimulated for 5 hours in the presence of brefeldin A (10 μg/mL) either with peptide alone (10 μM) in an autopresentation assay or with B-EBV or HLA-class II expressing melanoma cells pulsed 2 hours with the cognate peptide, at a ratio 1:2. In some experiments, blocking mAb against HLA-DP (clone B7.21 from Dr Charron, UMR940, Paris), HLA-DQ (clone SPVL3, Beckman Coulter) or HLA-DR (clone L243, BD Biosciences) were added at a concentration of 12.5 μg/ml. Cells were then stained with APC-conjugated anti-CD4 mAb, fixed with 4% paraformaldehyde, labeled with PE-conjugated anti-cytokine mAb and analyzed by flow cytometry.
(§3) We also documented the T helper profile of each T cell clone, by stimulating the CD4 T cell clones with the cognate peptide, and analyzing cytokine production. All the clones expressed Th1 cytokines (TNFα, IFNγ, IL2 and GM-CSF). On the contrary, these clones differ in their expression of Th2 cytokines. Indeed, the two DQ2 restricted T cell clones (9C12 and 4E2) and the DR1 restricted one (5F9) also strongly express two Th2 cytokines (IL4, and IL13), whereas the DR11-restricted T cell clone only weakly expressed IL4 (Table IV). None of the CD4 T cell expresses IL10 or IL5 at a significant level.
(§4) Three shorter peptides were better recognized by the DQ2-restricted 9C12 T cell clone, the shortest one being MELOE-17-19 (13-mer), recognized with an EC50 of 100 nM. The deletion of the two amino acids in C-term strongly reduces T cell clone recognition. […] Nonetheless all of these clones recognized a series of shortened peptides, thus we cannot formally assess that the shortest ones will be the exact peptides naturally presented on class II molecules.

[2] = test system: CD4 T cells in PBMC from healthy donors; assay: PBMC from healthy donors stimulated with MELOE-1, restimulated with overlapping peptides, CD4/TNF-α staining; conditions: for healthy donors in whom CD4 responses against the region were detected: seven healthy donors, TNFα production
Method: FIG. 1: (A) Percentages of TNF-α producing CD4 T cells among positive microcultures. Fourteen days after PBMC stimulation with MELOE-1 whole polypeptide (2-46), microcultures were re-stimulated with each indicated peptide during 5 hours. TNF-α production was then assessed by a double labeling TNF-α-CD4. Results were analyzed with a non-parametric test (Kruskal-Wallis) followed by a Dunns post-test. (B) Frequency of microcultures containing CD4 T cells specific for MELOE-1 peptides (assessed by TNF-α intracellular staining after re-stimulation with the 4 indicated peptides). 624 microcultures (from 7 healthy donors) were analyzed by a contingency table followed by a Fisher exact test.
PBMC from healthy donors were stimulated with 10 μM of MELOE-1. After 14 days, the presence of CD4 T cells specific for the different regions of MELOE-1 was assessed by restimulating cells with MELOE-12-21, MELOE-111-30, MELOE-118-37 and MELOE-126-46 peptides, followed by CD4/TNF-α double staining and flow cytometry analysis. Between brackets is indicated the mean % of TNF-α producing CD4 T cells, in positive microcultures. NA: not available.
PBMC from healthy donors or melanoma patients (2·10^5 cells/well) were cultured for 14 days with 10 μM of MELOE-1 whole antigen (46 amino acids) in RPMI medium supplemented with 8% HS, 50 IU/ml of rIL-2 (Chiron, France) and L-Glutamin, in 96-well multiplates. Micro cultures were then restimulated individually with each overlapping peptide (MELOE-12-21, MELOE-111-30, MELOE-118-37, MELOE-126-46 or MELOE-122-46 for melanoma patients) in the presence of 10 μg/mL brefeldin A for 5 hours and the percentage of CD4^+ specific T cells was assessed by TNF-α, IFN-γ or IL-4 intracellular staining A negative control without peptide was included in all experiments.
as §2
Our purpose was to look for the existence of class II helper epitopes all along MELOE-1 sequence (SEQ ID NO: 20), in order to document the immunogenicity of the different regions of this melanoma antigen. We stimulated 2·10^7 PBMC from seven healthy donors with MELOE-1 whole antigen and tested, after a 14-day culture period the presence of CD4 T cells specific for each region of the protein. Microcultures were screened for TNFα production by CD4+ T cells, after restimulation with four MELOE-1 derived overlapping peptides (Table I), in an autopresentation assay. […] On the contrary, the central region 18-37, containing an already described DR11-restricted epitope (24-37) located just at the end of this 20-mer peptide (Rogel et al., 2011), induced specific responses in microcultures deriving from only 2/7 donors (HD9 and HD17, both expressing the DR11 element). In these two donors, we detected 6 and 7% of positive microcultures, containing between 0.6 to 3.7% of TNFα producing CD4 T cells.

[3] = test system: MELOE-111-30 specific CD4 T cell clone (5F9-DRβ1*0101); assay: Peptide stimulation of CD4 T cell clone 5F9, intracellular cytokine staining; conditions: clone 5F9, cognate peptide 10 μM, 5 hours
Method: as §1, §2, §3, §4

[4] = test system: MELOE-111-30 specific CD4 T cell clone (1A5-DRβ1*1101); assay: Peptide stimulation of CD4 T cell clone 1A5, intracellular cytokine staining; conditions: cognate peptide 10 μM, 5 hours
Method: as §1, §2, §3, §4

SCVGYPDEATSREQFLPSEG (SCVGYPDEATSREQFLPSEC) [MELOE-12-21]
Cytokine profile: GM-CSF [1]: GM-CSF ^high | Cytokine profile: IFN [1]: IFN ^high | Cytokine profile: IL2 [1]: IL2 ^high | Cytokine profile: IL4 [1]: IL4 ^high | Cytokine profile: IL5 [1]: IL5 ^low | Cytokine profile: IL10 [1]: IL10 ^neg | Cytokine profile: IL13 [1]: IL13 ^high | Cytokine profile: TNF ([1]; autopresentation): TNF ^high | positive microcultures ([2]; healthy donor HD28): 62% | healthy donors in whom CD4 responses against the region were detected [2]: 6/7

TSREQFLPSEGAACPPWHPS [MELOE-111-30]
Cytokine profile: GM-CSF [3]: GM-CSF ^high | Cytokine profile: IFN [3]: IFN ^high | Cytokine profile: IL2 [3]: IL2 ^low | Cytokine profile: IL4 [3]: IL4 ^high | Cytokine profile: IL5 [3]: IL5 ^neg | Cytokine profile: IL10 [3]: IL10 ^neg | Cytokine profile: IL13 [3]: IL13 ^high | Cytokine profile: TNF ([3]; autopresentation): TNF ^high | Cytokine profile: GM-CSF [4]: GM-CSF ^high | Cytokine profile: IFN [4]: IFN ^high | Cytokine profile: IL2 [4]: IL2 ^high | Cytokine profile: IL4 [4]: IL4 ^low | Cytokine profile: IL5 [4]: IL5 ^neg | Cytokine profile: IL10 [4]: IL10 ^neg | Cytokine profile: IL13 [4]: IL13 ^neg | Cytokine profile: TNF ([4]; autopresentation): TNF ^high | mean % of TNF-α producing CD4 T cells, in positive microcultures ([2]; donor HD24): (2% ± 1.4) | mean % of TNF-α producing CD4 T cells, in positive microcultures ([2]; donor HD27): (5% ± 3.4) | frequency of positive microcultures versus the three other regions of MELOE-1 ([2]; healthy donors, Fisher exact test, p<0.0001): significantly higher | healthy donors in whom CD4 responses against the region were detected [2]: each tested donor
